Three cell lines from the supplement of paper PMC10307832 can be followed below.

What all share (test): relative viability (nuclei count vs DMSO), 5 days (fraction); higher = more cells survive
Compound in assay [1]: C[C@@H](C(=O)N[C@@H](C1CCCCC1)C(=O)N2CCC[C@H]2C(=O)N[C@@H]3[C@@H](CC4=CC=CC=C34)OCC#CC#CCO[C@@H]5CC6=CC=CC=C6[C@@H]5NC(=O)[C@@H]7CCCN7C(=O)[C@H](C8CCCCC8)NC(=O)[C@H](C)NC)NC [AZD5582] + Cc1nc(Nc2ncc(C(=O)Nc3c(C)cccc3Cl)s2)cc(N2CCN(CCO)CC2)n1 [Dasatinib] (partner 0.075 µM)
The method in brief: (§1)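 Lung cancer cell lines were seeded in 1536-well plates and dosed by pin tool the next day, with either a single drug or a fixed anchor-drug dose combined with five library-drug doses (not always all listed) spaced in √10 steps. Five days later, one step fixed the cells and stained their nuclei (final 0.05% Triton X-100, 1% formaldehyde, 1 ug/ml Hoechst), and nuclei were counted on 4× images. Relative viability is the nuclei count in treated wells divided by the count in vehicle wells, and each value is the median of duplicate plates.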

Compound in assay [2]: C[C@@H](C(=O)N[C@@H](C1CCCCC1)C(=O)N2CCC[C@H]2C(=O)N[C@@H]3[C@@H](CC4=CC=CC=C34)OCC#CC#CCO[C@@H]5CC6=CC=CC=C6[C@@H]5NC(=O)[C@@H]7CCCN7C(=O)[C@H](C8CCCCC8)NC(=O)[C@H](C)NC)NC [AZD5582] + C[C@]1(O)C[C@@H](c2nc(-c3ccc4ccc(-c5ccccc5)nc4c3)c3c(N)nccn32)C1 [Linsitinib] (partner 1 µM)
The method in brief:
as §1

Compound in assay [3]: C[C@@H](C(=O)N[C@@H](C1CCCCC1)C(=O)N2CCC[C@H]2C(=O)N[C@@H]3[C@@H](CC4=CC=CC=C34)OCC#CC#CCO[C@@H]5CC6=CC=CC=C6[C@@H]5NC(=O)[C@@H]7CCCN7C(=O)[C@H](C8CCCCC8)NC(=O)[C@H](C)NC)NC [AZD5582] + CC1(C)CCC(c2ccc(Cl)cc2)=C(CN2CCN(c3ccc(C(=O)NS(=O)(=O)c4ccc(N[C@H](CCN5CCOCC5)CSc5ccccc5)c(S(=O)(=O)C(F)(F)F)c4)cc3)CC2)C1 [Navitoclax] (partner 0.5 µM)
The method in brief:
as §1

Compound in assay [4]: C[C@@H](C(=O)N[C@@H](C1CCCCC1)C(=O)N2CCC[C@H]2C(=O)N[C@@H]3[C@@H](CC4=CC=CC=C34)OCC#CC#CCO[C@@H]5CC6=CC=CC=C6[C@@H]5NC(=O)[C@@H]7CCCN7C(=O)[C@H](C8CCCCC8)NC(=O)[C@H](C)NC)NC [AZD5582] + CC(=O)c1c(C)c2cnc(Nc3ccc(N4CCNCC4)cn3)nc2n(C2CCCC2)c1=O [Palbociclib] (partner 0.5 µM)
The method in brief: as §1

Compound in assay [5]: C[C@@H](C(=O)N[C@@H](C1CCCCC1)C(=O)N2CCC[C@H]2C(=O)N[C@@H]3[C@@H](CC4=CC=CC=C34)OCC#CC#CCO[C@@H]5CC6=CC=CC=C6[C@@H]5NC(=O)[C@@H]7CCCN7C(=O)[C@H](C8CCCCC8)NC(=O)[C@H](C)NC)NC [AZD5582] + CC(=O)Nc1cccc(-n2c(=O)n(C3CC3)c(=O)c3c(Nc4ccc(I)cc4F)n(C)c(=O)c(C)c32)c1 [Trametinib] (partner 0.02 µM)
The method in brief:
as §1

In the case of NCI-H1734, the relative viability worked out at 0.468 in assay [1] (first compound 0.001581 µM); 0.548 in assay [1] (first compound 0.005 µM); 0.434 in assay [1] (first compound 0.01581 µM); 0.664 in assay [1] (first compound 0.05 µM); 0.953 in assay [2] (first compound 0.001581 µM); 0.869 in assay [2] (first compound 0.005 µM). In addition, the relative viability in assay [2] (first compound 0.01581 µM) amounted to 0.895; in assay [2] (first compound 0.05 µM), 1.1; in assay [3] (first compound 0.001581 µM), 0.791; in assay [3] (first compound 0.005 µM), 0.866; in assay [3] (first compound 0.01581 µM), 0.886; in assay [3] (first compound 0.05 µM), 0.954. Further, the relative viability turned out to be 0.295 in assay [4] (first compound 0.001581 µM); 0.356 in assay [4] (first compound 0.005 µM); 0.366 in assay [4] (first compound 0.01581 µM); 0.333 in assay [4] (first compound 0.05 µM); 0.621 in assay [5] (first compound 0.001581 µM); 0.696 in assay [5] (first compound 0.005 µM). For the same cell line, the values for the relative viability in assay [5] (first compound 0.01581 µM) and in assay [5] (first compound 0.05 µM) were 0.743 and 0.701, respectively.
On to NCI-H520, for which the relative viability in assay [1] (first compound 0.001581 µM) amounted to 0.202; in assay [1] (first compound 0.005 µM), 0.227; in assay [1] (first compound 0.01581 µM), 0.206; in assay [1] (first compound 0.05 µM) it was 0.178; in assay [2] (first compound 0.001581 µM), 0.808; in assay [2] (first compound 0.005 µM), 0.948. For the same cell line, the relative viability worked out at 0.967 in assay [2] (first compound 0.01581 µM); 0.923 in assay [2] (first compound 0.05 µM); 1.07 in assay [3] (first compound 0.001581 µM); 1.15 in assay [3] (first compound 0.005 µM); 1.1 in assay [3] (first compound 0.01581 µM); 1.15 in assay [3] (first compound 0.05 µM). The relative viability in assay [4] (first compound 0.001581 µM) was found to be 0.193; in assay [4] (first compound 0.005 µM), 0.256; in assay [4] (first compound 0.01581 µM), 0.238; in assay [4] (first compound 0.05 µM), 0.223; in assay [5] (first compound 0.001581 µM), 0.605; in assay [5] (first compound 0.005 µM) it was 0.784. For the same cell line, the relative viability in assay [5] (first compound 0.01581 µM) was determined as 0.791; in assay [5] (first compound 0.05 µM), 0.708.
As to LK-2, the relative viability in assay [1] (first compound 0.001581 µM) came to 0.209; in assay [1] (first compound 0.005 µM) it was 0.36; in assay [1] (first compound 0.01581 µM), 0.322; in assay [1] (first compound 0.05 µM), 0.266; in assay [2] (first compound 0.005 µM), 0.685; in assay [2] (first compound 0.01581 µM) it was 0.643. In addition, the relative viability in assay [2] (first compound 0.05 µM) worked out at 0.795; in assay [3] (first compound 0.001581 µM) it was 0.754; in assay [3] (first compound 0.005 µM), 0.895; in assay [3] (first compound 0.01581 µM) it was 0.803; in assay [3] (first compound 0.05 µM), 1.21; in assay [4] (first compound 0.001581 µM), 0.553. Moreover, the relative viability in assay [4] (first compound 0.005 µM) amounted to 0.738; in assay [4] (first compound 0.05 µM), 0.75; in assay [5] (first compound 0.001581 µM) it was 0.466; in assay [5] (first compound 0.005 µM) it was 0.81; in assay [5] (first compound 0.01581 µM) it was 0.731; in assay [5] (first compound 0.05 µM), 1.04.
